In patent US11512057B2, “Unsaturated hydrocarbon pyrimidine thioether compounds and preparation method and application thereof” (Zhejiang University of Technology, priority 2018, dated 2022):

Tests used:
Format in all cases: in vivo
[1] = test system: powdery mildew of cucumber; assay: Prevention experiment of powdery mildew of cucumber, living pot assay; conditions: 200 ppm; cucumber seedlings, about 10 days
Protocol: The living pot assay method was adopted, that is, the sample of the test compound was dissolved with a small amount of DMF solvent (the kind of solvent such as acetone, methanol, DMF, etc., is selected according to the solvency of the sample, and the volume ratio of the solvent amount to the spray amount is equal to or less than 0.05), diluted with water containing 0.1% Tween 80, and formulated into the test solution with a desired concentration. Cucumber seedlings at leaf period with the same growth period was sprayed evenly with the prepared agent, and aired. Each concentration was one treatment, each treatment was repeated 3 times, a control agent and a water of blank control were set separately. The fresh powdery mildew spores on the leaves of cucumbers were washed and filtered with double gauze to prepare a suspension with a concentration of about 100,000 spores/mL. The samples were inoculated by spraying, the inoculated samples were moved into artificial climate, and relative humidity was maintained at 60-70%, the temperature was maintained at 23° C., after about 10 days, grading investigation was carried out according to the morbidity of the blank control, control effect was calculated according to disease index.

armyworm = assay: Activity test of armyworm, leaf-dipping method; conditions: after 3 days
Protocol: A certain amount of the original drug was weighed by an analytical balance (0.0001 g), and dissolved in DMF containing 1% Tween-80 emulsifier to prepare a 1% mother liquor, which was then diluted with distilled water for later use.
The insecticidal efficacy was evaluated by a leaf-dipping method with the armyworm as a target and a spray method with Tetranychus cinnabarinus and Aphis craccivora Koch as a target.
Leaf-dipping method: the target for the test was the armyworm, and corn leaves in an appropriate amount were fully infiltrated in the prepared liquid, then dried naturally, placed in culture dishes with filter papers, inoculated with 3rd instar larvae of the armyworm at 10 heads/dish, and placed in an observation room and cultured at 24˜27° C. the results were investigated after 3 days. A brush was used to touch the insect bodies, and the unresponsive were regarded as dead insects.

[2] = test system: adults of Tetranychus cinnabarinus; assay: Acaricidal comparison, spray method on adults of Tetranychus cinnabarinus
Protocol: Spray method: the test target was Tetranychus cinnabarinus, that is, broad bean leaves inoculated with adults of Tetranychus cinnabarinus were placed under the spray treatment of Potter spray towers. After treatment, the Tetranychus cinnabarinus was placed in an observation room and cultured at 25˜27° C., and the results were investigated after 48 hours. The brush was used to touch the insect body, and the unresponsive were regarded as dead insects. The test concentrations of the compounds on killing cinnabarin were 50, 25, 12.5, 6.25, 3.125 mg/L.

[3] = test system: eggs of Tetranychus cinnabarinus; assay: Acaricidal comparison, egg test
Protocol: Egg test: each treated broad bean leave was inoculated with 10 adults of Tetranychus cinnabarinus, and the adults were removed after the eggs were laid for 24 hours. The leaves with eggs were sprayed under Potter spray towers. After treatment, the eggs of Tetranychus cinnabarinus were placed in an observation room and cultured at 25˜27° C. And the test was examined until the eggs under the blank treatment completely hatched out. The concentration of the compound that kills the eggs of Tetranychus cinnabarinus was 100, 50, 25, 12.5, 6.25 mg/L.

[4] = test system: nymphs of Tetranychus cinnabarinus; assay: Acaricidal comparison, nymph test
Protocol: Nymph test: broad bean leaves were inoculated with 10 adult mites, and the adults were removed after laying eggs for 24 hours. The eggs were fed in insect rearing room, and when they hatched into nymphs, they were sprayed with a sprayer. After treatment, the leaves with the nymphs were placed in an observation room and cultured at 25-27° C., and the results were investigated after 48 hours. A brush was used to touch the insect bodies, and the unresponsive were regarded as the dead. The test concentrations of the compound on killing cinnabarin were 5, 2.5, 1.25, 0.625, 0.3125 mg/L.

| SMILES | effect of preventing powdery mildew [1] | lethal rate on armyworm larvae (armyworm; 500 mg/L, 3rd instar larvae) | further results |
| --- | --- | --- | --- |
| C=CCSc1nc(C)cc(OCc2ccccc2/C(=C\OC)C(=O)OC)n1 [Compound 1] | 100% | – | – |
| C=CCSc1nc(OCc2ccccc2/C(=C\OC)C(=O)OC)c(Cl)c(C(F)F)n1 [Compound 9] | 100% | 100% | – |
| C=C(Cl)CSc1nc(OCc2ccccc2/C(=C\OC)C(=O)OC)cc(C(F)F)n1 [Compound 34] | 100% | 100% | – |
| C=C(Cl)CSc1nc(OCc2ccccc2/C(=C\OC)C(=O)OC)cc(C(F)(F)F)n1 [Compound 35] | 100% | 100% | – |
| C=C(Cl)CSc1nc(CC)cc(OCc2ccccc2/C(=C\OC)C(=O)OC)n1 [Compound 36] | 100% | 100% | – |
| CO/C=C(/C(=O)OC)c1ccccc1COc1cc(C)nc(SC/C=C/Cl)n1 [Compound 49] | 100% | – | – |
| CO/C=C(/C(=O)OC)c1ccccc1COc1cc(C(F)F)nc(SC/C=C/Cl)n1 [Compound 50] | 100% | – | – |
| CO/C=C(/C(=O)OC)c1ccccc1COc1cc(C(F)(F)F)nc(SC/C=C/Cl)n1 [Compound 51] | 100% | 100% | – |
| CO/C=C(/C(=O)OC)c1ccccc1COc1cc(C2CC2)nc(SC/C=C/Cl)n1 [Compound 55] | 100% | – | – |
| CO/C=C(/C(=O)OC)c1ccccc1COc1cc(C(F)(F)F)nc(SCC=C(Cl)Cl)n1 [Compound 67] | 100% | 100% | lethal rate against adult mites compared with fluacrypyrim ([2]; 50, 25, and 12.5 mg/L): better than that of fluacrypyrim; lethal rate on eggs of Tetranychus cinnabarinus compared with fluacrypyrim ([3]; 100, 50, 25, 12.5, 6.25 mg/L): better than that of fluacrypyrim; lethal rate on nymphs of Tetranychus cinnabarinus compared with fluacrypyrim ([4]; 5, 2.5, 1.25, 0.625, 0.3125 mg/L): better than that of fluacrypyrim |
| CCc1cc(OCc2ccccc2/C(=C\OC)C(=O)OC)nc(SCC=C(Cl)Cl)n1 [Compound 68] | – | – | lethal rate on armyworm larvae (armyworm; 100 mg/L): more than 80% |
| CO/C=C(/C(=O)OC)c1ccccc1COc1cc(C)nc(SCCC=C(F)F)n1 [Compound 113] | 100% | 100% | – |
| CO/C=C(/C(=O)OC)c1ccccc1COc1cc(C(F)F)nc(SCCC=C(F)F)n1 [Compound 114] | 100% | – | – |
| CCc1cc(OCc2ccccc2/C(=C\OC)C(=O)OC)nc(SCCC=C(F)F)n1 [Compound 116] | – | 100% | – |
| CCCc1cc(OCc2ccccc2/C(=C\OC)C(=O)OC)nc(SCCC=C(F)F)n1 [Compound 117] | – | 100% | – |
| CO/C=C(/C(=O)OC)c1ccccc1COc1cc(C(C)C)nc(SCCC=C(F)F)n1 [Compound 118] | – | 100% | – |
| CO/C=C(/C(=O)OC)c1ccccc1COc1cc(C2CC2)nc(SCCC=C(F)F)n1 [Compound 119] | – | 100% | – |
| CO/C=C(/C(=O)OC)c1ccccc1COc1nc(SCCC=C(F)F)nc(C)c1C [Compound 127] | 100% | – | – |
| CCCCc1c(C)nc(SCCC=C(F)F)nc1OCc1ccccc1/C(=C\OC)C(=O)OC [Compound 128] | – | 100% | – |
| C=CCSc1nc(C)cc(OCc2ccccc2/C(=N\OC)C(=O)OC)n1 [Compound 145] | – | 100% | – |
| C=CCSc1nc(OCc2ccccc2/C(=N\OC)C(=O)OC)cc(C(F)F)n1 [Compound 146] | 100% | – | – |
| C=CCSc1nc(OCc2ccccc2/C(=N\OC)C(=O)OC)cc(C(F)(F)F)n1 [Compound 147] | – | 100% | – |
| C=C(Cl)CSc1nc(C)cc(OCc2ccccc2/C(=N\OC)C(=O)OC)n1 [Compound 177] | 100% | – | – |
| C=C(Cl)CSc1nc(OCc2ccccc2/C(=N\OC)C(=O)OC)cc(C(F)(F)F)n1 [Compound 179] | 100% | 100% | – |

| SMILES | effect of preventing powdery mildew [1] | lethal rate on armyworm larvae (armyworm; 500 mg/L, 3rd instar larvae) | further results |
| --- | --- | --- | --- |
| C=C(Cl)CSc1nc(CC)cc(OCc2ccccc2/C(=N\OC)C(=O)OC)n1 [Compound 180] | 100% | 100% | – |
| C=C(Cl)CSc1nc(C)c(C)c(OCc2ccccc2/C(=N\OC)C(=O)OC)n1 [Compound 191] | 100% | – | – |
| CO/N=C(/C(=O)OC)c1ccccc1COc1cc(C)nc(SC/C=C/Cl)n1 [Compound 193] | 100% | 100% | – |
| CO/N=C(/C(=O)OC)c1ccccc1COc1cc(C(F)F)nc(SC/C=C/Cl)n1 [Compound 194] | 100% | 100% | – |
| CO/N=C(/C(=O)OC)c1ccccc1COc1cc(C2CC2)nc(SC/C=C/Cl)n1 [Compound 199] | 100% | 100% | – |
| CO/N=C(/C(=O)OC)c1ccccc1COc1cc(C(F)(F)F)nc(SCC=C(Cl)Cl)n1 [Compound 211] | – | 100% | – |
| CCCc1cc(OCc2ccccc2/C(=N\OC)C(=O)OC)nc(SCC=C(Cl)Cl)n1 [Compound 213] | – | 100% | – |
| CO/N=C(/C(=O)OC)c1ccccc1COc1cc(C(C)C)nc(SCC=C(Cl)Cl)n1 [Compound 214] | – | 100% | – |
| CO/N=C(/C(=O)OC)c1ccccc1COc1cc(C2CC2)nc(SCC=C(Cl)Cl)n1 [Compound 215] | – | 100% | – |
| CCc1cc(OCc2ccccc2/C(=N\OC)C(=O)OC)nc(SCCC=C(F)F)n1 [Compound 260] | – | 100% | – |
| CCCc1cc(OCc2ccccc2/C(=N\OC)C(=O)OC)nc(SCCC=C(F)F)n1 [Compound 261] | – | 100% | – |
| CO/N=C(/C(=O)OC)c1ccccc1COc1nc(SCCC=C(F)F)nc(C)c1C [Compound 271] | 100% | 100% | – |
| COC(=O)N(OC)c1ccccc1COc1cc(C)nc(SC/C=C/Cl)n1 [Compound 337] | – | 100% | – |
| COC(=O)N(OC)c1ccccc1COc1cc(C(F)F)nc(SC/C=C/Cl)n1 [Compound 338] | – | 100% | – |
| COC(=O)N(OC)c1ccccc1COc1cc(C)nc(SCC=C(Cl)Cl)n1 [Compound 353] | – | 100% | – |
| COC(=O)N(OC)c1ccccc1COc1cc(C(F)F)nc(SCC=C(Cl)Cl)n1 [Compound 354] | – | 100% | – |
| CCc1cc(OCc2ccccc2N(OC)C(=O)OC)nc(SCC=C(Cl)Cl)n1 [Compound 356] | – | 100% | – |
| CCCc1cc(OCc2ccccc2N(OC)C(=O)OC)nc(SCC=C(Cl)Cl)n1 [Compound 357] | – | 100% | – |
| COC(=O)N(OC)c1ccccc1COc1cc(C2CC2)nc(SCC=C(Cl)Cl)n1 [Compound 359] | – | 100% | – |
| CCCc1cc(OCc2ccccc2N(OC)C(=O)OC)nc(SCCC=C(F)F)n1 [Compound 405] | – | 100% | – |
| COC(=O)N(OC)c1ccccc1COc1cc(C(C)C)nc(SCCC=C(F)F)n1 [Compound 406] | – | 100% | – |
| CCc1cc(OCc2ccccc2C(=NOC)C(=O)NC)nc(SCCC=C(F)F)n1 [Compound 549] | – | 100% | – |
| CO/C=C(/C(=O)OC)c1ccccc1COc1cc(C(F)(F)F)nc(OC(C)C)n1 [Fluacrypyrim, fluacrypyrim] | – | – | mortality at 3.125 µg/mL ([2]; Tetranychus cinnabarinus, 48 h): 39.5%; mortality at 6.25 µg/mL ([2]; Tetranychus cinnabarinus, 48 h): 64.6%; mortality at 12.5 µg/mL ([2]; Tetranychus cinnabarinus, 48 h): 70.6%; mortality at 25 µg/mL ([2]; Tetranychus cinnabarinus, 48 h): 75.9%; mortality at 50 µg/mL ([2]; Tetranychus cinnabarinus, 48 h): 88.9%; mortality at 6.25 µg/mL ([3]; Tetranychus cinnabarinus): 10.8%; mortality at 12.5 µg/mL ([3]; Tetranychus cinnabarinus): 13.6%; mortality at 25 µg/mL ([3]; Tetranychus cinnabarinus): 32.2%; mortality at 50 µg/mL ([3]; Tetranychus cinnabarinus): 54.9%; mortality at 100 µg/mL ([3]; Tetranychus cinnabarinus): 75%; mortality at 0.3125 µg/mL ([4]; Tetranychus cinnabarinus, 48 h): 7.74%; mortality at 0.625 µg/mL ([4]; Tetranychus cinnabarinus, 48 h): 17.1%; mortality at 1.25 µg/mL ([4]; Tetranychus cinnabarinus, 48 h): 28.8%; mortality at 2.5 µg/mL ([4]; Tetranychus cinnabarinus, 48 h): 55.3%; mortality at 5 µg/mL ([4]; Tetranychus cinnabarinus, 48 h): 82.5% |
